Experimental data: US5591741A, “Fungicidal spiroheterocyclic derivatives” (American Cyanamid Company, priority 1993, dated 1997)

How the values were obtained:
Plasmopara viticola = test: Antisporulant activity against vine downy mildew (PVA); type: in vivo; conditions: vine leaves, antisporulant foliar spray, 600 ppm, 750 l/ha
Procedure, shortened: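 Cabernet Sauvignon vines (~8 cm) inoculated on lower leaf surfaces with 5×10^4 zoosporangia/ml, held 24 h at 21° C high humidity then 24 h glasshouse. Infected leaves sprayed underside with 600 ppm compound in 1:1 water/acetone, 0.04% Tween 20, 750 l/ha; 96 h glasshouse, 24 h humidity. Sporulating leaf area rated versus control.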

Alternaria solani = test: Activity against tomato early blight (AS); type: in vivo; conditions: Table VI; tomato seedlings, contact prophylactic foliar spray, 4 days
Procedure, shortened: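 Plants were challenged with A. solani conidia (10^4 spores/ml) 24 h after a protective foliar spray of compound in 50:50 acetone/water plus 0.04% Tween 20. Held humid at 21° C for 4 days, then percent leaf area with lesions was scored as a rating relative to controls.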

Botrytis cinerea = test: Direct protectant activity against broad bean grey mould (BCB); type: in vivo; conditions: direct protectant foliar spray, 600 ppm, 4 days
Procedure, shortened: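 Protectant foliar test: lesion coverage assessed 4 days after inoculation and rated relative to untreated or diluent-sprayed plants. Compound applied at 600 ppm to cv The Sutton leaves 24 h before 10^6 conidia/ml suspension; incubation at 22 °C in high humidity.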

Leptosphaeria nodorum = test: Activity against wheat leafspot (LN); type: in vivo; conditions: direct therapeutic foliar spray, 600 ppm, 6-8 days
Procedure, shortened: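 Therapeutic foliar spray: compound at 600 ppm applied to single-leaf wheat (cv Norman) 24 h after inoculation with 1.5×10^6 conidia/ml. Disease control scored after 6-8 days at 22° C and 70% humidity as lesions per leaf versus untreated or diluent-sprayed controls.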

[1] = test system: Erysiphe graminis f.sp. hordei; test: Activity against barley powdery mildew, direct therapeutic (EGT); type: in vivo; conditions: direct therapeutic foliar spray, 600 ppm, up to 7 days
Procedure, shortened: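 A curative spray at 600 ppm was applied to single-leaf Golden Promise barley inoculated with powdery mildew conidia the previous day. After up to 7 days at 18 °C and 40% humidity, disease control was rated from percent leaf area sporulating relative to untreated or diluent-sprayed controls.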

[2] = test system: Erysiphe graminis f.sp. hordei; test: Direct protectant activity against barley powdery mildew (EGP); type: in vivo; conditions: direct protectant foliar spray, 8 days
Procedure, shortened: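 Rating reflects percentage of leaf area with sporulation compared with untreated or diluent-sprayed controls. Protectant spray was applied to single-leaf barley (cv Golden Promise) 24 h before conidia inoculation. Plants were kept at 18 °C and 40% RH throughout, with 8 days of disease development.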

Phytophthora infestans = type: in vivo; conditions: tomato, direct protectant foliar spray
[3] = test system: Pseudocercosporella herpotrichoides; test: Activity against wheat eyespot in-vitro (PHI); type: cell-based; conditions: 10 ppm, 10 days, 20° C., mycelial growth
Procedure, shortened: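 Mycelial growth was scored after 10 days at 20 °C against untreated or diluent controls. The broth was half-strength potato dextrose, holding 10 ppm test compound (from acetone) and 5×10^4 fragments/ml of the eyespot fungus.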

Rhizoctonia solani = test: Activity against Rhizoctonia in-vitro (RSI); type: cell-based; conditions: 10 ppm, 10 days, 20° C., mycelial growth
Procedure, shortened: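 Compound at a final 10 ppm (acetone vehicle) in half-strength PDB, inoculated with 5×10^4 fragments/ml of shaken-culture R. solani mycelium. After incubation at 20° C for 10 days, growth scored as a rating versus untreated or diluent-treated controls.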

Venturia inaequalis = test: Activity against apple scab in-vitro (VII); type: cell-based; conditions: 10 ppm, 10 days, 20° C., mycelial growth
Procedure, shortened: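 V. inaequalis propagules (5×10^4/ml, malt agar-grown) were exposed in half-strength PDB to 10 ppm final test compound delivered in acetone. Growth was scored after incubation for 10 days at 20° C, as a rating relative to untreated or diluent-sprayed controls.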

Pyricularia oryzae = type: in vivo; conditions: rice seedlings, direct therapeutic foliar spray, 600 ppm, 4-5 days

Compound	disease control rating PVA (Plasmopara viticola)	disease control rating AS (Alternaria solani)	disease control rating BCB (Botrytis cinerea)	disease control rating LN (Leptosphaeria nodorum)	disease control rating EGT [1]	disease control rating EGP [2]	disease control rating PIP (Phytophthora infestans)	disease control rating PHI [3]	disease control rating RSI (Rhizoctonia solani)	disease control rating VII (Venturia inaequalis)	disease control rating PO (Pyricularia oryzae)
CN(C1CCCCC1)C1COC2(CCC(C(C)(C)C)CC2)C1 (centres unmarked) [Compound 20]	0 (less than 50% disease control)	0 (less than 50% disease control)	0 (less than 50% disease control)	0 (less than 50% disease control)	2 (greater than 80% disease control)	2 (greater than 80% disease control)	0 (less than 50% disease control)	0 (less than 50% disease control)	0 (less than 50% disease control)	1 (about 50-80% disease control)	0 (less than 50% disease control)
CCCN(C(CC)CC)C1COC2(CCC(C(C)(C)C)CC2)C1 (centres unmarked) [Compound 96]	0 (less than 50% disease control)	0 (less than 50% disease control)	0 (less than 50% disease control)	0 (less than 50% disease control)	2 (greater than 80% disease control)	2 (greater than 80% disease control)	0 (less than 50% disease control)	0 (less than 50% disease control)	1 (about 50-80% disease control)	1 (about 50-80% disease control)	0 (less than 50% disease control)
CCCCCCN(CCCCCC)C1COC2(CCC(C(C)(C)C)CC2)C1 (centres unmarked) [Compound 69]	0 (less than 50% disease control)	0 (less than 50% disease control)	0 (less than 50% disease control)	0 (less than 50% disease control)	2 (greater than 80% disease control)	2 (greater than 80% disease control)	0 (less than 50% disease control)	0 (less than 50% disease control)	0 (less than 50% disease control)	2 (greater than 80% disease control)	1 (about 50-80% disease control)
CC(C)CC(C)NC1COC2(CCC(C(C)(C)C)CC2)C1 (centres unmarked) [Compound 110]	0 (less than 50% disease control)	0 (less than 50% disease control)	1 (about 50-80% disease control)	0 (less than 50% disease control)	2 (greater than 80% disease control)	2 (greater than 80% disease control)	2 (greater than 80% disease control)	1 (about 50-80% disease control)	1 (about 50-80% disease control)	1 (about 50-80% disease control)	0 (less than 50% disease control)
CC(C)(C)CC(C)(C)NC1COC2(CCC(C(C)(C)C)CC2)C1 (centres unmarked) [Compound 106]	0 (less than 50% disease control)	0 (less than 50% disease control)	0 (less than 50% disease control)	0 (less than 50% disease control)	2 (greater than 80% disease control)	2 (greater than 80% disease control)	2 (greater than 80% disease control)	0 (less than 50% disease control)	0 (less than 50% disease control)	1 (about 50-80% disease control)	0 (less than 50% disease control)
CCCN(CCC)C1COC2(CCC(C(C)(C)C)CC2)C1 (centres unmarked) [Compound 13]	0 (less than 50% disease control)	0 (less than 50% disease control)	0 (less than 50% disease control)	0 (less than 50% disease control)	2 (greater than 80% disease control)	2 (greater than 80% disease control)	0 (less than 50% disease control)	0 (less than 50% disease control)	0 (less than 50% disease control)	2 (greater than 80% disease control)	0 (less than 50% disease control)
c1ccc(CNC2COC3(CCCCC3)C2)cc1 (centres unmarked) [Compound 33]	0 (less than 50% disease control)	0 (less than 50% disease control)	0 (less than 50% disease control)	0 (less than 50% disease control)	1 (about 50-80% disease control)	0 (less than 50% disease control)	0 (less than 50% disease control)	0 (less than 50% disease control)	0 (less than 50% disease control)	0 (less than 50% disease control)	0 (less than 50% disease control)
CC(C)(C)C1CCC2(CC1)CC(NCCC1=CCCCC1)CO2 (centres unmarked) [Compound 108]	0 (less than 50% disease control)	0 (less than 50% disease control)	2 (greater than 80% disease control)	0 (less than 50% disease control)	2 (greater than 80% disease control)	2 (greater than 80% disease control)	2 (greater than 80% disease control)	1 (about 50-80% disease control)	1 (about 50-80% disease control)	1 (about 50-80% disease control)	0 (less than 50% disease control)
CCCCCCNC1COC2(CCC(C(C)(C)C)CC2)C1 (centres unmarked) [Compound 39]	0 (less than 50% disease control)	2 (greater than 80% disease control)	0 (less than 50% disease control)	0 (less than 50% disease control)	2 (greater than 80% disease control)	2 (greater than 80% disease control)	0 (less than 50% disease control)	1 (about 50-80% disease control)	0 (less than 50% disease control)	0 (less than 50% disease control)	0 (less than 50% disease control)
CCCCNC1COC2(CCC(C(C)(C)C)CC2)C1 (centres unmarked) [Compound 64]	0 (less than 50% disease control)	0 (less than 50% disease control)	2 (greater than 80% disease control)	0 (less than 50% disease control)	2 (greater than 80% disease control)	2 (greater than 80% disease control)	2 (greater than 80% disease control)	0 (less than 50% disease control)	0 (less than 50% disease control)	0 (less than 50% disease control)	0 (less than 50% disease control)
